Structures are written as SMILES. Values joined by “and” are separate entries in the source; they are usually repeats but may differ in a detail not shown here. Equal entries are not always repeated.

A short description of this series: solvent given as SMILES.

With `c1ccc(N2c3ccccc3Sc3cc(-c4cccc5nc6ccccc6cc45)ccc32)cc1`, the absorption maximum is, setting by setting: (in C1CCOC1) 407 nm; (in CC#N) 407 nm; (in CC(C)=O) 407 nm; (in CC(C)OC(C)C) 407 nm; (in CCCCCC) 407 nm; (in CCCCOCCCC) 407 nm. The absorption maximum reads like this: (in CCN(CC)CC) 407 nm; (in CCOC(C)=O) 407 nm; (in CCOCC) 407 nm; (in CN(C)C=O) 407 nm; (in ClCCl) 407 nm.
For `FC(F)(F)c1ccc2oc3nc4oc5ccc(-n6c7ccccc7c7ccccc76)cc5c4cc3c2c1`, the absorption maximum (in ClC(Cl)Cl) was determined as 342 nm.
On to `CC(C)(C)c1cc2ccc3c(-c4ccc(N(c5ccccc5)c5ccccc5)cc4)ccc4c5nc6cc(C#N)c(C#N)cc6nc5c(c1)c2c34`, for which the absorption maximum (in Cc1ccccc1) stood at 500 nm.
`CCOC(=O)COc1ccc(/C=C/C2=C3C(C)=CC(C)=[N+]3[B-](F)(F)n3c2c2ccccc2c3-c2[nH]c(C)cc2C)cc1` displayed an absorption maximum (in ClCCl) of 608 nm.
`CC(C)c1cc(C(C)C)c(B2c3ccccc3Oc3cc(N4c5ccccc5C5(c6ccccc6-c6ccccc65)c5ccccc54)ccc32)c(C(C)C)c1` displayed an absorption maximum (in Cc1ccccc1) of 430 nm.
In the case of `N#Cc1cc(/C=C/c2ccc(N(c3ccccc3)c3ccccc3)cc2)ccc1/C=C/c1ccc(/C=C/c2ccc(N(c3ccccc3)c3ccccc3)cc2)cc1C#N`, for the setting “in ClCCl”, the absorption maximum is recorded as 447 nm.
As for `CCCCCCN1C(=O)c2cccc3c(-c4ccc(-c5cc(-c6ccc(C)cc6)n(-c6ccccc6)n5)s4)ccc(c23)C1=O`, where the note is “in ClCCl”, the absorption maximum was found to be 402 nm.
Where the note is “in CC#N”, `CC1=[N+]2C(=C(c3ccccc3)c3c4ccccc4c(C)n3[B-]2(F)F)c2ccccc21` had an absorption maximum of 597 nm.
With `[O-]c1ccccc1/C=N/c1ccccc1/N=C/c1ccccc1[O-]`, the absorption maximum (in C1CCOC1) worked out at 380 nm.
As to `C[Si](C)(C)O[Si]1(O[Si](C)(C)C)n2c3c4ccccc4c2/N=C2N=C(/N=c4/c5ccccc5/c(n41)=N/C1=NC(=N\3)/c3ccccc31)c1ccccc1\2`, the absorption maximum (in CN(C)C=O) came out at 668 nm.
As for `CCc1cc(CC)cc(-n2c3ccccc3c3cc4c(cc32)c2ccccc2n4-c2cc(CC)cc(CC)c2)c1`, the absorption maximum (in ClC(Cl)Cl) is 410 nm.
`CC1=C(I)C(C)=[N+]2C1=C(c1c(-c3ccccn3)nc3ccccn13)c1c(C)cc(C)n1[B-]2(F)F`: where the note is “in ClCCl”, the absorption maximum is listed as 534 nm.
Take `CC1(C)CC(=O)c2c(F)c(F)c(F)c(F)c2N1`: the absorption maximum (in CC#N) is given as 360 nm.
For the setting “in C1CCOC1”, `C(=C1c2ccccc2-c2ccccc21)c1ccc(C=C2c3ccccc3-c3ccccc32)cc1` yielded an absorption maximum of 365 nm.
Take `CCCC1=C(CCC)c2cccc3c2c(cc2nc4ccccc4nc23)O1`: the absorption maximum (in ClCCl) worked out at 499 nm.
For the compound `CC(C)(C)c1cc(C(C)(C)C)c(-c2nnc(-c3ccc(-n4c5ccccc5c5ccccc54)cc3)o2)c(C(C)(C)C)c1`, the absorption maximum (in Cc1ccccc1) is 340 nm.
Take `F[B-]1(F)n2c(ccc2-c2cccs2)C(c2ccc(Br)cc2)=C2C=CC(c3cccs3)=[N+]21`: under “in ClC(Cl)Cl”, the absorption maximum was 622 nm.
With `CCCCCCCCCCn1cc(C2=C(c3cn(CCCCCCCCCC)c4ccccc34)C(=O)N(C)C2=O)c2ccccc21`, the absorption maximum runs as follows: (in C1CCCCC1) 462 nm; (in C1CCOC1) 471 nm; (in CC#N) 470 nm; (in CC(C)OC(C)C) 470 nm; (in CCCCOCCCC) 469 nm; (in CCO) 480 nm. This compound also displayed an absorption maximum (in CCOC(C)=O) of 472 nm, an absorption maximum (in CN(C)C=O) of 474 nm, an absorption maximum (in Cc1ccccc1) of 472 nm and an absorption maximum (in ClCCl) of 477 nm.
Consider `CCn1c2ccccc2c2c3nsnc3c3c4ccccc4n(CC)c3c21`, for which the absorption maximum is, setting by setting: (in CN(C)C=O) 420 nm; (in Cc1ccccc1) 420 nm; (in ClCCl) 420 nm.
Regarding `c1ccc(-c2nc(-c3ccc(N(c4ccccc4)c4ccccc4)cc3)n3ccccc23)cc1`, the absorption maximum by setting is: (in C1CCCCC1) 352 nm; (in CC#N) 350 nm; (in CO) 348 nm; (in ClCCl) 353 nm; (in O) 360 nm.
Regarding `CCn1c(-c2ccc(-c3ccc(-c4ccc(-c5n(CC)c6ccccc6[n+]5CC)cc4)c(C)c3)cc2)[n+](CC)c2ccccc21`, the absorption maximum (in O) is 290 nm.
As to `CCCCCCCCCCCCN1C(=O)c2ccc3c4ccc5c6c(ccc(c7ccc(c2c37)C1=O)c64)C(=O)N(CCCCCCCCCCCC)C5=O`, for the setting “in CN(C)C=O”, the absorption maximum turned out to be 523 nm.
`O=c1c2ccccc2n(-c2ccc(-c3ccc(-n4c5ccccc5c5ccccc54)cc3)cc2)c2ccccc12` had an absorption maximum (in ClCCl) of 394 nm.
Take `COC(=O)C(Cc1ccc2oc(-c3ccc(-n4c5ccccc5c5ccccc54)cc3)nc2c1)NC(=O)OC(C)(C)C` (stereo not drawn): the absorption maximum was determined as 340 nm (in C1CCCCC1); 341.8 nm (in C1CCOC1); 341.4 nm (in C1COCCO1); 341.41 nm (in CC1CCCO1); 340 nm (in CC#N); 341.8 nm (in CC(C)(C)O). This compound also returned an absorption maximum (in CC(C)=O) of 340.7 nm; an absorption maximum (in CC(C)CC(C)(C)C) of 339.9 nm; an absorption maximum (in CC(C)O) of 340.48 nm; an absorption maximum (in CC(O)CO) of 342.3 nm; an absorption maximum (in CCCCCCCO) of 342.5 nm; an absorption maximum (in CCCCCCO) of 342.59 nm. Further, the absorption maximum (in CCCCCO) is on record as 340.8 nm; the absorption maximum (in CCCCO) is 341.8 nm; the absorption maximum (in CCO) turned out to be 340.48 nm; the absorption maximum (in CCOC(C)=O) is reported as 340.02 nm; the absorption maximum (in CCOCC) was 339.6 nm; the absorption maximum (in CN(C)C=O) came to 342.11 nm. Further, the absorption maximum was found to be 339.7 nm (in CO), 343.6 nm (in CS(C)=O), 342.61 nm (in Cc1ccccc1) and 343.21 nm (in OCCO).
`Cc1cc(-c2ccc(-c3ccccc3)cc2)cc(C)[o+]1`: where the note is “in ClCCl”, the absorption maximum was 402 nm.
The compound `Cc1cc(=O)oc2cc(/[NH+]=C/C=C3/C=C(C(=O)O)NC(C(=O)O)C3)ccc12` (stereo not drawn) gave an absorption maximum (in O) of 520 nm.
`Cc1cc(C)c(-c2c3ccccc3c3ccc4cc5c(-c6c(C)cc(C)cc6C)c6ccccc6c6ccc7cc2c3c4c7c56)c(C)c1` yielded an absorption maximum (in ClCCl) of 607 nm.
In turn, `Nc1ccc(/C=C/c2ccccc2)cc1` yielded an absorption maximum (in CC#N) of 318 nm and an absorption maximum (in CCCCCC) of 316 nm.
In the case of `CCCCC1=Cc2c3ccc4cccc5ccc(c6cc(-c7ccccc7)n(c26)P1(=O)c1ccccc1)c3c45` (stereo not drawn), the absorption maximum was 430 nm (in C1CCCCC1); 430 nm (in C1CCOC1); 430 nm (in C1COCCO1); 426 nm (in CC#N); 427 nm (in CC(C)=O); 426 nm (in CO). Moreover, the absorption maximum is, setting by setting: (in Cc1ccccc1) 433 nm; (in ClC(Cl)Cl) 431 nm; (in ClCCl) 430 nm.
As to `CC1=CC(C)=[N+]2C1=C(c1ccc3cccnc3n1)c1c(C)cc(C)n1[B-]2(F)F`, the absorption maximum by setting is: (in CC#N) 501 nm; (in CCCCCC) 506 nm; (in CO) 503 nm; (in ClC(Cl)Cl) 509 nm; (in ClCCl) 506 nm.
`C(#Cc1c2ccccc2c(-c2ccccc2)c2cc3ccccc3cc12)c1ccccc1` returned an absorption maximum (in ClCCl) of 522 nm.
`CC1(C)c2ccccc2N(c2ccc(-c3cc(C#N)c(C#N)cc3-c3ccc(N4c5ccccc5C(C)(C)c5ccccc54)cc3)cc2)c2ccccc21` returned an absorption maximum (in Cc1ccccc1) of 384 nm.
As for `Oc1ccc(-c2cccs2)cc1-c1nc2ccccc2s1`, the absorption maximum runs as follows: (in CCO) 360 nm; (in O) 361 nm.
On to `COc1ccc(N(c2ccc(/C=C(\C)c3ccccc3)cc2)c2ccc(OC)cc2)cc1`, for which, for the setting “in Cc1ccccc1”, the absorption maximum is on record as 347 nm.
On the same count and under the same terms, the value for `CCOCCC1=Cc2nc1ccc1[nH]c(cc1CCOCC)c1nc(ccc3[nH]c2cc3CCOCC)C(CCOCC)=C1` was 638 nm.
Under “in ClC(Cl)Cl”, `FC(F)(F)c1ccc(-c2ncc3ccccn23)cc1` returned an absorption maximum of 340 nm.
As to `c1ccc(C2=Nc3cccc4[n+]3[B-](c3ccccc3)(N2)NC(c2ccccc2)=N4)cc1`, the absorption maximum (in ClCCl) came to 440 nm.
`c1ccc2c(c1)Nc1ccccc1B2c1c2ccccc2cc2ccccc12` yielded an absorption maximum (in ClCCl) of 394 nm and an absorption maximum (in c1ccccc1) of 394 nm.
As to `COc1ccc(C2=N/C(=C\c3ccccc3)C(=O)N2)cc1OC`, the absorption maximum (in C1COCCO1) is reported as 390 nm.
The compound `CC(=O)c1c(N[C@@H](Cc2ccccc2)C(=O)O)c2ccc(N(C)C)cc2oc1=O` came in with an absorption maximum (in ClCCl) of 374 nm.
`Clc1nc(Cl)nc(Nc2ccc3cc4ccccc4cc3c2)n1` registered an absorption maximum (in C1COCCO1) of 396 nm, an absorption maximum (in CC#N) of 398 nm, an absorption maximum (in CCCCOCCCC) of 395 nm and an absorption maximum (in CCOC(C)=O) of 394 nm.
Turning to `O=[N+]([O-])c1ccc(C#Cc2ccc3ccccc3c2)cc1`, the absorption maximum (in ClC(Cl)Cl) came out at 338 nm and the absorption maximum (in ClCCl) was 339 nm.
On to `O=C(c1ccc2c3c(cccc13)-c1cccc3c1C2CC=C3)c1c(CCc2ccccc2)c2ccc3cccc4c5cccc6ccc1c(c65)c2c34` (stereo not drawn), for which, for the setting “in ClCCl”, the absorption maximum amounted to 470 nm.
On the same count and under the same terms, under `c1ccc(-c2cccc3ncc(-c4ccccc4)n23)cc1` stands 337 nm; under `c1ccc(-n2c3ccccc3c3cc(-c4cccc(-n5c6ccccc6c6c7sc8ccccc8c7ccc65)c4)ccc32)cc1`, 355 nm.
As to `O=C1c2ccc3c4ccc5c6c(ccc(c7ccc(c2c37)C(=O)N1c1ccc(O)cc1)c64)C(=O)N(c1ccc(O)cc1)C5=O`, the absorption maximum reads like this: (in C1CCOC1) 519 nm; (in CN1CCCC1=O) 525 nm; (in CN(C)C=O) 522 nm and 524 nm.

The record behind these values is the Deep4Chem optical property database.
